Measured values from ChEMBL document CHEMBL1926646 (Bioorg Med Chem, 2011).
The source made the active and inactive calls. The calls are words filed in the database; no cut-off is given here.

Legend:
[1] = Plasma protein binding in dog at 2000 ng/ml after 0.5 hrs by LC-MS/MS analysis; assay type: ADME, cell-free, Canis lupus familiaris; conditions: read-out: PPB (converted)
Rattus norvegicus [2] = experiment: Inhibition of plasma DPP-4 activity in Wistar/ST rat at 3 mg/kg, po pretreated 30 mins before glucose challenge measured for 2 hrs during oral glucose tolerance test; assay type: functional
[3] = Terminal half life in Beagle dog at 0.5 mg/kg, po; assay type: ADME, organism-based, Canis lupus familiaris; design: dose 0.5 mg/kg, route oral; conditions: in vivo, read-out: beta t1/2 (converted)
[4] = Plasma protein binding in dog at 20 ng/ml after 0.5 hrs by LC-MS/MS analysis; assay type: ADME, cell-free, Canis lupus familiaris; conditions: read-out: PPB (converted)
Rattus norvegicus [5] = experiment: Antidiabetic activity in Wistar/ST rat plasma assessed as reduction in glucose AUC (0 to 60 mins) at 10 mg/kg, po pretreated 30 mins before glucose challenge measured for 2 hrs by oral glucose tolerance test; assay type: functional, organism-based; design: dose 10 mg/kg
Canis familiaris [6] = experiment: Volume of distribution at steady state in Beagle dog at 0.2 mg/kg, iv; assay type: ADME, organism-based, Canis lupus familiaris; design: dose 0.2 mg/kg, route intravenous; conditions: in vivo
[7] = Oral bioavailability in Sprague-Dawley rat at 10 mg/kg; assay type: ADME, organism-based; conditions: in vivo
[8] = Cmax in Beagle dog at 0.5 mg/kg, po; assay type: ADME, organism-based, Canis lupus familiaris; design: dose 0.5 mg/kg, route oral; conditions: in vivo
Rattus norvegicus [9] = experiment: Inhibition of plasma DPP-4 activity in orally dosed Wistar/ST rat pretreated 30 mins before glucose challenge measured for 2 hrs during oral glucose tolerance test; assay type: functional, organism-based
[10] = Plasma protein binding in rat at 2000 ng/ml after 0.5 hrs by LC-MS/MS analysis; assay type: ADME, cell-free; conditions: read-out: PPB (converted)
[11] = Tmax in Sprague-Dawley rat at 10 mg/kg, po; assay type: ADME, organism-based; design: dose 10 mg/kg, route oral; conditions: in vivo
[12] = Plasma protein binding in rat at 20 ng/ml after 0.5 hrs by LC-MS/MS analysis; assay type: ADME, cell-free; conditions: read-out: PPB (converted)
[13] = Cmax in Sprague-Dawley rat at 10 mg/kg, po; assay type: ADME, organism-based; design: dose 10 mg/kg, route oral; conditions: in vivo
[14] = Tmax in Beagle dog at 0.5 mg/kg, po; assay type: ADME, organism-based, Canis lupus familiaris; design: dose 0.5 mg/kg, route oral; conditions: in vivo
[15] = Oral bioavailability in Beagle dog at 0.5 mg/kg; assay type: ADME, organism-based, Canis lupus familiaris; conditions: in vivo
[16] = Plasma protein binding in human at 20 ng/ml after 0.5 hrs by LC-MS/MS analysis; assay type: ADME, cell-free; conditions: read-out: PPB (converted)
[17] = Plasma protein binding in human at 2000 ng/ml after 0.5 hrs by LC-MS/MS analysis; assay type: ADME, cell-free; conditions: read-out: PPB (converted)
Canis familiaris [18] = experiment: AUC in Beagle dog at 0.5 mg/kg, po; assay type: ADME, organism-based, Canis lupus familiaris, Plasma; design: dose 0.5 mg/kg, route oral; conditions: in vivo
[19] = Total clearance in Beagle dog at 0.2 mg/kg, iv; assay type: ADME, organism-based, Canis lupus familiaris; design: dose 0.2 mg/kg, route intravenous; conditions: in vivo
[20] = Total clearance in Sprague-Dawley rat at 3 mg/kg, iv; assay type: ADME, organism-based; design: dose 3 mg/kg, route intravenous; conditions: in vivo
Rattus norvegicus [21] = experiment: Inhibition of plasma DPP-4 activity in Wistar/ST rat at 10 mg/kg, po pretreated 30 mins before glucose challenge measured within 30 mins; assay type: functional
[22] = Terminal half life in Sprague-Dawley rat at 10 mg/kg, po; assay type: ADME, organism-based; design: dose 10 mg/kg, route oral; conditions: in vivo, read-out: beta t1/2 (converted)
[23] = Drug level in Sprague-Dawley rat plasma at 3 mg/kg at Tmax; assay type: ADME, organism-based; design: dose 3 mg/kg; conditions: read-out: Drug uptake
Rattus norvegicus [24] = experiment: Volume of distribution at steady state in Sprague-Dawley rat at 3 mg/kg, iv; assay type: ADME, organism-based; design: dose 3 mg/kg, route intravenous; conditions: in vivo
Rattus norvegicus [25] = experiment: AUC in Sprague-Dawley rat at 10 mg/kg, po; assay type: ADME, organism-based, Plasma; design: dose 10 mg/kg, route oral; conditions: in vivo
[26] = Tmax in Sprague-Dawley rat at 3 mg/kg, po; assay type: ADME, organism-based; design: dose 3 mg/kg, route oral; conditions: in vivo
[27] = Cmax in Sprague-Dawley rat at 3 mg/kg, po; assay type: ADME, organism-based; design: dose 3 mg/kg, route oral; conditions: in vivo

- fraction unbound at 0.5 h, 2000 ng/ml [1]: 0.801
- half-life [3]: 1.3 h
- fraction unbound at 0.5 h, 20 ng/ml [4]: 0.775
- Vdss (Canis familiaris [6]): 0.75 L/kg
- bioavailability [7]: 27%
- Cmax [8]: 282 ng/mL
- fraction unbound at 0.5 h, 2000 ng/ml [10]: 0.821
- Tmax [11]: 0.25 h
- fraction unbound at 0.5 h, 20 ng/ml [12]: 0.779
- Cmax [13]: 747 ng/mL
- Tmax [14]: 1 h
- bioavailability [15]: 98%
- fraction unbound at 0.5 h, 20 ng/ml [16]: 0.811
- fraction unbound at 0.5 h, 2000 ng/ml [17]: 0.784
- AUC (Canis familiaris [18]): 6390 ng·h/mL
- clearance [19]: 10.3 mL/min/kg
- clearance [20]: 37.2 mL/min/kg
- half-life [22]: 1.9 h
- Cmax [23]: 54 nM
- Vdss (Rattus norvegicus [24]): 1.61 L/kg
- AUC (Rattus norvegicus [25]): 1110 ng·h/mL
- Tmax [26]: 0.25 h
- Cmax [27]: 68 ng/mL
Structure (SMILES): Cc1cc2ncc(C(=O)NCC(C)(C)NCC(=O)N3CCC[C@H]3C#N)c(C)n2n1.Cl
- inhibition in vivo at 3 mg/kg (Rattus norvegicus [2]): 60%
- Activity (Rattus norvegicus [5]): Active
- inhibition (Rattus norvegicus [9]): Dose-dependent effect
- inhibition in vivo at 10 mg/kg (Rattus norvegicus [21]): 90%
